{"source": "paper PMC6934184", "about": "“Selective DNA-PKcs inhibition extends the therapeutic index of localized radiotherapy and chemotherapy” (The Journal of Clinical Investigation, 2019)", "target": "T1, CASK (Homo sapiens, UniProt O14936)", "T1 construct": "purchased Thermo Fisher Scientific (Life Technologies) SelectScreen", "T1 sequence (O14936 whole entry)": "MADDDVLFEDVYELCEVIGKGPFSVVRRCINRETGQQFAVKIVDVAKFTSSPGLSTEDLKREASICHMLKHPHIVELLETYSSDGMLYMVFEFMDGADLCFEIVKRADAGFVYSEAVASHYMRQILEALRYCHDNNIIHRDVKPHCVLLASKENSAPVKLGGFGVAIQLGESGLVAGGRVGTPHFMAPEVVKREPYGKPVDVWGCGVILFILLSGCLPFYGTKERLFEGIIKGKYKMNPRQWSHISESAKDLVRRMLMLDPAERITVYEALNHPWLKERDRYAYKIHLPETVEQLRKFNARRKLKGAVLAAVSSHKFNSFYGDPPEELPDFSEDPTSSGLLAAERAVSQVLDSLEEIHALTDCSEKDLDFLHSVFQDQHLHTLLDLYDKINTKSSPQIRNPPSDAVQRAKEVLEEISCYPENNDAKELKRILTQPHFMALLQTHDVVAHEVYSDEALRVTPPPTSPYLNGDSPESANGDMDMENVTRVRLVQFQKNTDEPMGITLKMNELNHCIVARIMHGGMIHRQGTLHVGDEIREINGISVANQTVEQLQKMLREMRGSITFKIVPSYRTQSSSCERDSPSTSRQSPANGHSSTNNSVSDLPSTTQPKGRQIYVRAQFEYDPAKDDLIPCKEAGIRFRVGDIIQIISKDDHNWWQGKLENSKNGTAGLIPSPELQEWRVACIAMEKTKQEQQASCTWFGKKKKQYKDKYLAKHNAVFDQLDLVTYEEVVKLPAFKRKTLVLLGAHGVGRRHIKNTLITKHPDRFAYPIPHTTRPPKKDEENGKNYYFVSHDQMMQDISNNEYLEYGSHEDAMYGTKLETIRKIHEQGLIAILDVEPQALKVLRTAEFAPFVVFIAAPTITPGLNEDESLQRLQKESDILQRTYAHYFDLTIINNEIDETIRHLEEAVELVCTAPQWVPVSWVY", "test": "SelectScreen LanthaScreen", "format": "binding", "settings": "read-out: % displacement", "how_it_was_run": "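NU5455 was profiled across the SelectScreen Broad panel of kinase activity and binding assays. Z'LYTE reactions such as CSF1R ran at apparent Km ATP, while the Adapta CAMK1 assay used ATP listed as 10. Values are given as percent.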", "data": [{"smiles": "CN(C(=O)CN1CCOCC1)c1ccc2sc3c(-c4cccc5c(=O)cc(N6CC7CCC(C6)O7)oc45)cccc3c2c1", "note": "[NU5455]", "values": [{"measurement": "inhibition at 1 µM", "value": -3.1, "unit": "%"}]}]}
